Experimental data reported in patent US10519211B2, “Compounds as peptidic GLP1/glucagon/GIP receptor agonists” (SANOFI, priority 2016, dated 2019).
Numbered stars: 1 amine (or outer) side, 2 acyl side, 3 side chain; on linkers, the order of the positions; unused ones are H or OH. Square brackets hold non-standard residues; d marks the D form. Side chains are listed from the residue outwards. Peptide text beside a SMILES is read from it. * marks the point of attachment. γGlu = O=C(O)[C@H](CCC(=O)[*:2])N[*:1]; Palmitoyl = CCCCCCCCCCCCCCCC(=O)*; Aib = CC(C)(N)C(=O)O

What was measured:
Type in all cases: physicochemical
[1] = Chemical stability assessment (UPLC-UV, relative purity loss); conditions: 1 mg/ml, 25 mM acetate buffer pH 4.5 with m-cresol (buffer system A)
How it was run: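 Peptide at 1 mg/mL (purity-corrected) in 25 mM acetate pH 4.5 with methionine, m-cresol and glycerol, sterile-filtered, stored 28 days at 40° C. Purity measured by UPLC-UV as peptide peak area fraction at start and after storage; value is relative percent purity loss.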

[2] = Dynamic light scattering (DLS), hydrodynamic radius as surrogate for interaction parameter kD; conditions: for Delta Rh [nm] = Rh5 − Rh1: DLS buffer system A pH 4.5; for Rh1 [nm] c= 1 mg/ml / Rh5 [nm] c = 5 mg/ml: hydrodynamic radius, DLS buffer system A pH 4.5, DLS method C, 25° C.
How it was run: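 Rh and diffusion constant measured in triplicate at 1 and 5 mg/ml peptide in 25 mM acetate pH4.5 with methionine, m-cresol and glycerol, at 25°C, 830 nm, 158°. Rh5<Rh1 or D5>D1 taken as kD>0, indicating repulsive interactions.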

[3] = Thioflavin T (ThT) assay for physical stability (fibrillation); conditions: 3 mg/ml, 100 mM acetate pH 4.5 with m-cresol, shaking at 37° C.
How it was run: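 Peptide at 3 mg/ml with 100 μM ThT in 100 mM acetate pH 4.5 with m-cresol, stressed at 37° C by cycles of 10 s shaking at 960 rpm and 50 s rest. Fluorescence read every 20 minutes, eight replicates; lag time in hours.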

Compound	Chemical stability [relative purity loss 28 days 40° C.] (%) at pH 4.5 [1]	Delta Rh [nm] = Rh5 − Rh1 [2]	Rh1 [nm] c= 1 mg/ml [2]	Rh5 [nm] c = 5 mg/ml [2]	Lag time before increase [3]
CCCCCCCCCCCCCCCC(=O)N[C@@H](CCC(=O)N[C@@H](CCC(=O)NCCCC[C@H](NC(=O)[C@H](CC(C)C)NC(=O)[C@H](CCCCN)NC(=O)[C@H](CO)NC(=O)[C@H](CC(C)C)NC(=O)[C@H](CC(=O)O)NC(=O)[C@H](CO)NC(=O)[C@@H](NC(=O)[C@H](Cc1ccccc1)NC(=O)[C@@H](NC(=O)CNC(=O)[C@H](CCC(N)=O)NC(=O)C(C)(C)NC(=O)[C@@H](N)Cc1c[nH]cn1)[C@@H](C)O)[C@@H](C)O)C(=O)N[C@@H](CCC(=O)O)C(=O)N[C@@H](CCC(=O)O)C(=O)N[C@@H](CCC(N)=O)C(=O)N[C@@H](CCCNC(=N)N)C(=O)N[C@@H](CCC(N)=O)C(=O)NC(C)(C)C(=O)N[C@@H](CCC(=O)O)C(=O)N[C@@H](Cc1ccccc1)C(=O)N[C@H](C(=O)N[C@@H](CCC(=O)O)C(=O)N[C@@H](Cc1c[nH]c2ccccc12)C(=O)N[C@@H](CC(C)C)C(=O)N[C@@H](CCCCN)C(=O)N[C@@H](C)C(=O)NCC(=O)NCC(=O)N[C@@H](Cc1c[nH]cn1)C(=O)N1CCC[C@H]1C(=O)N[C@@H](CO)C(=O)NC(C)(C)C(=O)N[C@@H](CCCCN)C(=O)N1CCC[C@H]1C(=O)N1CCC[C@H]1C(=O)N1CCC[C@H]1C(=O)N[C@@H](CCCCN)C(N)=O)[C@@H](C)CC)C(=O)O)C(=O)O [SEQ ID NO: 8, H-Aib-Q-G-T-F-T-S-D-L-S-K-L-K[gGlu-gGlu-Palm]-E-E-Q-R-Q-Aib-E-F-I-E-W-L-K-A-G-G-H-P-S-Aib-K-P-P-P-K-NH2]	7.6%	–	–	–	>45 h
CCCCCCCCCCCCCCCC(=O)N[C@@H](CCC(=O)N[C@@H](CCC(=O)NCCCC[C@H](NC(=O)[C@H](CC(C)C)NC(=O)[C@H](CCCCN)NC(=O)[C@H](CO)NC(=O)[C@H](CC(C)C)NC(=O)[C@H](CC(=O)O)NC(=O)[C@H](CO)NC(=O)[C@@H](NC(=O)[C@H](Cc1ccccc1)NC(=O)[C@@H](NC(=O)CNC(=O)[C@H](CCC(N)=O)NC(=O)C(C)(C)NC(=O)[C@@H](N)Cc1c[nH]cn1)[C@@H](C)O)[C@@H](C)O)C(=O)N[C@@H](CCC(=O)O)C(=O)N[C@@H](CCC(=O)O)C(=O)N[C@@H](CCC(N)=O)C(=O)N[C@@H](CCCNC(=N)N)C(=O)N[C@@H](CCC(N)=O)C(=O)NC(C)(C)C(=O)N[C@@H](CCC(=O)O)C(=O)N[C@@H](Cc1ccccc1)C(=O)N[C@H](C(=O)N[C@@H](CCC(=O)O)C(=O)N[C@@H](Cc1c[nH]c2ccccc12)C(=O)N[C@@H](CC(C)C)C(=O)N[C@@H](CCCCN)C(=O)N[C@@H](C)C(=O)NCC(=O)NCC(=O)N1CCC[C@H]1C(=O)N1CCC[C@H]1C(=O)N[C@@H](CO)C(=O)NC(C)(C)C(=O)N[C@@H](CCCCN)C(=O)N1CCC[C@H]1C(=O)N1CCC[C@H]1C(=O)N1CCC[C@H]1C(=O)N[C@@H](CCCCN)C(N)=O)[C@@H](C)CC)C(=O)O)C(=O)O [SEQ ID NO: 9, H-Aib-Q-G-T-F-T-S-D-L-S-K-L-K[gGlu-gGlu-Palm]-E-E-Q-R-Q-Aib-E-F-I-E-W-L-K-A-G-G-P-P-S-Aib-K-P-P-P-K-NH2]	8.7%	–	–	–	>45 h
CCCCCCCCCCCCCCCC(=O)N[C@@H](CCC(=O)N[C@@H](CCC(=O)NCCCC[C@H](NC(=O)[C@H](CC(C)C)NC(=O)[C@H](CCCCN)NC(=O)[C@H](CO)NC(=O)[C@H](CC(C)C)NC(=O)[C@H](CC(=O)O)NC(=O)[C@H](CO)NC(=O)[C@@H](NC(=O)[C@H](Cc1ccccc1)NC(=O)[C@@H](NC(=O)CNC(=O)[C@H](CCC(N)=O)NC(=O)C(C)(C)NC(=O)[C@@H](N)Cc1c[nH]cn1)[C@@H](C)O)[C@@H](C)O)C(=O)N[C@@H](CCC(=O)O)C(=O)N[C@@H](CCC(=O)O)C(=O)N[C@@H](CCC(N)=O)C(=O)N[C@@H](CCCNC(=N)N)C(=O)N[C@@H](CCC(N)=O)C(=O)NC(C)(C)C(=O)N[C@@H](CCC(=O)O)C(=O)N[C@@H](Cc1ccccc1)C(=O)N[C@H](C(=O)N[C@@H](CCC(=O)O)C(=O)N[C@@H](Cc1c[nH]c2ccccc12)C(=O)N[C@@H](CC(C)C)C(=O)N[C@@H](CCCCN)C(=O)N[C@@H](C)C(=O)N[C@H](C)C(=O)NCC(=O)N1CCC[C@H]1C(=O)N1CCC[C@H]1C(=O)N[C@@H](CO)C(=O)NC(C)(C)C(=O)N[C@@H](CCCCN)C(=O)N1CCC[C@H]1C(=O)N1CCC[C@H]1C(=O)N1CCC[C@H]1C(=O)N[C@@H](CCCCN)C(N)=O)[C@@H](C)CC)C(=O)O)C(=O)O [SEQ ID NO: 10, H-Aib-Q-G-T-F-T-S-D-L-S-K-L-K[gGlu-gGlu-Palm]-E-E-Q-R-Q-Aib-E-F-I-E-W-L-K-A-dAla-G-P-P-S-Aib-K-P-P-P-K-NH2] (H-H[Aib]QGTFTSDLSKLK([γGlu-γGlu-Palmitoyl])EEQRQ[Aib]EFIEWLKA[dA]GPPS[Aib]KPPPK-NH2)	7.4%	–	–	–	>45 h

The remaining lines, values ahead:

Chemical stability [relative purity loss 28 days 40° C.] (%) at pH 4.5 [1]	Delta Rh [nm] = Rh5 − Rh1 [2]	Rh1 [nm] c= 1 mg/ml [2]	Rh5 [nm] c = 5 mg/ml [2]	Lag time before increase [3]	Compound
4.5%	−0.3 nm	2.8 nm	2.5 nm	>45 h	CCCCCCCCCCCCCCCC(=O)N[C@@H](CCC(=O)N[C@@H](CCC(=O)NCCCC[C@H](NC(=O)[C@H](CC(C)C)NC(=O)[C@H](CCCCN)NC(=O)[C@H](CO)NC(=O)[C@H](CC(C)C)NC(=O)[C@H](CC(=O)O)NC(=O)[C@H](CO)NC(=O)[C@@H](NC(=O)[C@H](Cc1ccccc1)NC(=O)[C@@H](NC(=O)CNC(=O)[C@H](CCC(N)=O)NC(=O)C(C)(C)NC(=O)[C@@H](N)Cc1c[nH]cn1)[C@@H](C)O)[C@@H](C)O)C(=O)N[C@@H](CCC(=O)O)C(=O)N[C@@H](CCCCN)C(=O)N[C@@H](CCC(N)=O)C(=O)N[C@@H](CCCNC(=N)N)C(=O)N[C@@H](CCC(N)=O)C(=O)NC(C)(C)C(=O)N[C@@H](CCC(=O)O)C(=O)N[C@@H](Cc1ccccc1)C(=O)N[C@H](C(=O)N[C@@H](CCC(=O)O)C(=O)N[C@@H](Cc1c[nH]c2ccccc12)C(=O)N[C@@H](CC(C)C)C(=O)N[C@@H](CCCCN)C(=O)N[C@@H](C)C(=O)N[C@H](C)C(=O)NCC(=O)N[C@@H](Cc1c[nH]cn1)C(=O)N1CCC[C@H]1C(=O)N[C@@H](CO)C(=O)NC(C)(C)C(=O)N[C@@H](CCCCN)C(=O)N1CCC[C@H]1C(=O)N1CCC[C@H]1C(=O)N1CCC[C@H]1C(=O)N[C@@H](CCCCN)C(N)=O)[C@@H](C)CC)C(=O)O)C(=O)O [SEQ ID NO: 13, H-Aib-Q-G-T-F-T-S-D-L-S-K-L-K[gGlu-gGlu-Palm]-E-K-Q-R-Q-Aib-E-F-I-E-W-L-K-A-dAla-G-H-P-S-Aib-K-P-P-P-K-NH2] (H-H[Aib]QGTFTSDLSKLK([γGlu-γGlu-Palmitoyl])EKQRQ[Aib]EFIEWLKA[dA]GHPS[Aib]KPPPK-NH2)
6.9%	−0.5 nm	2.3 nm	1.8 nm	>45 h	CCCCCCCCCCCCCCCC(=O)N[C@@H](CCC(=O)N[C@@H](CCC(=O)NCCCC[C@H](NC(=O)[C@H](CC(C)C)NC(=O)[C@H](CCCCN)NC(=O)[C@H](CO)NC(=O)[C@H](CC(C)C)NC(=O)[C@H](CC(=O)O)NC(=O)[C@H](CO)NC(=O)[C@@H](NC(=O)[C@H](Cc1ccccc1)NC(=O)[C@@H](NC(=O)CNC(=O)[C@H](CCC(N)=O)NC(=O)C(C)(C)NC(=O)[C@@H](N)Cc1c[nH]cn1)[C@@H](C)O)[C@@H](C)O)C(=O)N[C@@H](CCC(=O)O)C(=O)N[C@@H](CCCCN)C(=O)N[C@@H](CCC(N)=O)C(=O)N[C@@H](CCCNC(=N)N)C(=O)N[C@@H](CCC(N)=O)C(=O)NC(C)(C)C(=O)N[C@@H](CCC(=O)O)C(=O)N[C@@H](Cc1ccccc1)C(=O)N[C@H](C(=O)N[C@@H](CCC(=O)O)C(=O)N[C@@H](Cc1c[nH]c2ccccc12)C(=O)N[C@@H](CC(C)C)C(=O)N[C@@H](CCCCN)C(=O)N[C@@H](C)C(=O)NCC(=O)NCC(=O)N1CCC[C@H]1C(=O)N1CCC[C@H]1C(=O)N[C@@H](CO)C(=O)NC(C)(C)C(=O)N[C@@H](CCCCN)C(=O)N1CCC[C@H]1C(=O)N1CCC[C@H]1C(=O)N1CCC[C@H]1C(=O)N[C@@H](CCCCN)C(N)=O)[C@@H](C)CC)C(=O)O)C(=O)O [SEQ ID NO: 6, H-Aib-Q-G-T-F-T-S-D-L-S-K-L-K[gGlu-gGlu-Palm]-E-K-Q-R-Q-Aib-E-F-I-E-W-L-K-A-G-G-P-P-S-Aib-K-P-P-P-K-NH2]
